# Measured values published in patent US6710084B2, “Inhibition of TNFα-initiated neutrophil response” (Brigham and Women's Hospital, priority 1999, dated 2004).
# Experiments:
# [1] = test system: human PMN; experiment: TNFα-stimulated superoxide anion generation by human PMN (cytochrome C reduction); type: cell-based; conditions: for inhibition of TNFα-stimulated superoxide anion generation: 10 nM compound, 5 min, then TNFα 50 ng/ml
# Protocol: Human PMN were incubated with either vehicle alone or indicated concentrations of LXA4, 15 R/S-methyl-LXA4 or 16-phenoxy-LXA4 for 5 min and then with TNFα (50 ng/ml) for an additional 10 min. Values are the mean±SEM for LXA4 (n=3), 15 R/S-methyl-LXA4 (n=4) or 16-phenoxy-LXA4 (n=3).
# Venous blood from healthy donors was collected using sterile conditions using acid citrate dextrose (ACD) as an anticoagulant, and PMN were isolated as in (15). PMN were suspended in cold (4° C.) Hank's medium (supplemented with 1.6 mM Ca^++, 0.1% FCS, 2 mM L-glutamine, 1% penicillin, and 2% streptomycin, pH 7.4). […] To examine superoxide production, PMN (1.0×10^6/ml) were placed at 37° C. (3 min) and then exposed to either vehicle (0.1% ethanol) or synthetic LXA4, 15R/S-methyl LXA4 or 16-phenoxy-LXA4 for 5 min at 37° C. Before adding TNFα (50 ng/ml), PMN were incubated with cytochrome C (0.7 mg/ml) for 10 min at 37° C. […] reduction of cytochrome C was terminated by rapidly placing tubes in an ice-water bath. The extent of cytochrome C reduction in each supernatant was determined at 550 nm in reference to control values obtained when superoxide dismutase was added before a stimulus or vehicle control. Cytochrome C reduction was quantitated using the extinction coefficient of 21.1/mmol/L.
# TNFα, although a modest agonist of O2^−generation by human PMN, is a physiologically relevant stimulus for the generation of reactive oxygen species (ROS) by human PMN that can play critical roles in local tissue injury during both inflammation and reperfusion (Tsujii, M., S. Kawano, S. Tsuji, H. Sawaoka, M. Hori, and R. N. DuBois. 1998. Cyclooxygenase regulates angiogenesis induced by colon cancer cells. Cell 93:705-716; Shibuya, H., N. Ohkohchi, S. Tsukamoto, and S. Satomi. 1997. Tumor necrosis factor-induced, superoxide-mediated neutrophil accumulation in cold ischemic/reperfused rat liver. Hepatology 26:113-120; Jaeschke, H., A. Farhood, and C. W. Smith. 1990. Neutrophils contribute to ischemia/reperfusion injury in rat liver in vivo. FASEB J. 4:3355-3359). In FIG. 1, the impact of LXA4 and ATL related bioactive stable analogs were evaluated on TNFα stimulated superoxide anion production. […] 15R/S-methyl-LXA4 covers both LXA4 and ATL in structure, and 16-phenoxy-LXA4 is a LXA4 analog (see FIG. 1).
# [2] = test system: PMN; experiment: PMA- or FMLP-stimulated O2- production by PMN; type: cell-based, human
# [3] = test system: IL-1β; experiment: TNFα-induced IL-1β release by human PMN; type: cell-based; conditions: for inhibition of IL-1β release: 100 nM compound, human PMN
# Excerpt: Supernatants were collected, and IL-1β was quantitated by ELISA. Results are expressed as mean±SD of duplicates, and are from one experiment representative of n=3. […] Values represent the mean ±SEM, n=3. At all time intervals tested, TNFα induced a significant appearance of IL-1β over vehicle-treated cells (*p<0.01).
# (§1) Human and mouse recombinant TNFα and human recombinant GM-CSF were obtained from Boehringer Mannheim (Indianapolis, Ind.). Dulbecco's PBS (Mg^++ and Ca^++-free), RPMI-1640 and FCS were purchased from Bio Whittaker Inc. (Walkersville, Md.). Ficoll-Hypaque was from Organon Teknika Corp. (Durham, N.C.) and Hank's balanced salt solution was purchased from Gibco BRL (Grand Island, N.Y.). Serum bovine albumin, dextran, antibiotics, L-glutamine, cytochrome C, superoxide dismutase and zymosan were obtained from Sigma (St. Louis, Mo.). The assessment of human IL-1β in supernatants was performed by using an immunometric assay with acetylcholine esterase (Cayman Chemical, Ann Arbor, Mich.). Murine IL-1β was assessed using an ELISA from Endogen (Woburn, Mass.). ELISAs for IL-4 and IL-10 were from Amersham (Arlington Heights, Ill.); MIP-2 and IL-13 ELISAs were from R&D Systems (Minneapolis, Minn.). LXA4 and ATL metabolically stable analogs were prepared and characterized, including nuclear magnetic resonance spectroscopy, as in (14). Concentrations of each LX analog were determined using an extinction coefficient of 50,000 M^−1.cm^−1.just prior to each experiment. Where indicated, statistical analyses were performed using Student's non-paired t-test (two-tailed), and significance (*) was considered to be attained when P was <0.05.
# [4] = test system: MIP-2; experiment: MIP-2 in murine air pouch exudates (ELISA); type: in vivo, BALB/c mice
# Protocol: (§2) Experiments were conducted as described in FIG. 5 legend. Quantitation for IL-1β, IL-4, IL-10, IL-13 and MIP-2 was performed using ELISA with air pouch cell-free exudates. […] Changes in IL-1β, MIP-2 and IL-4 were significant at all tested time intervals (p<0.01).
# as §1
# (§3) Exudates from selected time intervals were collected and cell-free supernatants assessed for the presence of these murine cytokines. TNFα induced maximal detectable amounts of MIP-2 and IL-1β within 90 minutes (not shown). 15 R/S-methyl-LXA4 (25 mnoles) inhibited TNFα-stimulated MIP-2 and IL-1β release by 48% and 30% respectively (FIG. 6). […] This stimulation of IL-4 was observed both in the absence as well as presence of TNFα. Neither IL-10 nor IL-13 was detected within the pouch exudates.
# [5] = test system: IL-1β; experiment: IL-1β in murine air pouch exudates (ELISA); type: in vivo, BALB/c mice
# Protocol: as §2, §1, §3
# [6] = test system: IL-4; experiment: IL-4 in murine air pouch exudates (ELISA); type: in vivo, BALB/c mice; conditions: both in the absence as well as presence of TNFα
# Protocol: as §2
# as §1, with “ELISAs for IL-4 and IL-10 were from Amersham (Arlington Heights, Ill.); MIP-2 and IL-13 ELISAs were from R&D Systems (Minneapolis, Minn.). LXA4 and ATL metabolically stable analogs were prepared and characterized, including nuclear magnetic resonance spectroscopy, as in (14).” left out, “Where indicated, statistical analyses were performed using Student's non-paired t-test (two-tailed), and significance (*) was considered to be attained when P was <0.05.” left out
# Exudates from selected time intervals were collected and cell-free supernatants assessed for the presence of these murine cytokines. […] Neither IL-10 nor IL-13 was detected within the pouch exudates.
# [7] = test system: leukocyte infiltration; experiment: TNFα-induced leukocyte infiltration in murine air pouches
# Protocol: One ml of sterile PBS containing either 0.1% ethanol, TNFα, 15 R/S-methyl-LXA4, or TNFα plus 15 R/S-methyl-LXA4 was injected into the pouches, and the exudates were collected at indicated time periods. The total number of leukocytes was counted as in Materials & Methods. The results are expressed as mean±SEM from three different mice for each point.
# Six to eight week old male BALB/c mice were obtained from Taconic Farms (Germantown, N.Y.). Air pouches were raised on the dorsum by s.c. injection of 3 ml of sterile air on day 0 and day 3. All experiments were conducted on day 6 (16). Individual air pouches (one per mouse) were injected with either vehicle alone (0.1% ethanol), TNFα, 15 R/S-methyl-LXA4 or TNFα plus 15 R/S-methyl-LXA4, and each was suspended in 1 ml endotoxin-free PBS immediately before injection into pouch cavities. At given intervals, the mice were sacrificed and individual air pouches were lavaged three times with sterile PBS (1 ml). The exudates were centrifuged at 2000 RPM (5 min) and the supernatants were removed. Cell pellets were suspended in PBS (200 μl) for enumeration and assessed for viability. Fifty μl of each cell suspension was mixed with 150 μl 30% BSA and then centrifuged onto microscope slides at 500 RPM for 5 min using a cytospin centrifuge, air dried, and stained with Giemsa-Wright.
# Also, inflammatory exudates were collected 4 h after injection with vehicle alone, TNFα, 15 R/S-methyl-LXA4 alone, or TNFα plus 15 R/S-methyl-LXA4, and cell types were enumerated.
# [8] = test system: IL-1β messenger RNA; experiment: TNFα-triggered IL-1β gene expression in PMN (Northern blot); conditions: 100 nM compound plus TNFα 10 ng/ml; 6 h
# Protocol: PMN were incubated with either 0.1% ethanol (vehicle) or 15 R/S-methyl-LXA4 at 10, 100, and 1000 nM, in the presence or absence of TNFα (10 ng/ml), for 6 h at 37° C. Northern blots were performed in order to detect IL-1β messenger RNA.
# PMN were exposed to increasing concentrations of 15 R/S-methyl-LXA4, 16-phenoxy-LXA4 or native LXA4 in the presence of TNFα (10 ng/ml) or vehicle alone.
# [9] = molecular target: LXA4 receptor (Homo sapiens, UniProt P25090); experiment: Involvement of LXA4 receptor in TNFα-stimulated IL-1β release (anti-LXA4-R antibodies)
# Protocol: PMN were incubated with either IgG purified from pre-immune serum (50 μg/ml) or anti-LXA4 receptor (50 μg/ml) for 1 h at 4° C., then exposed to agonists for 12 h at 37° C. and 5% CO2. Values are expressed as mean±SD from an experiment performed in triplicate, which is representative of three distinct experiments each performed with different donors (*p<0.01).
# PMN were incubated with ˜50 μg/ml of either preimmune protein-A purified IgG or IgG directed against LXA4-R for 1 h at 4° C. prior to exposure to TNFα (10 ng/ml) and 15 R/S-methyl-LXA4 (100 nM).
# [10] = test system: IL-1β; experiment: IL-1β levels in supernatants of PMN incubated with TNFα, GM-CSF or zymosan; type: cell-based, human
# Excerpt: as §1, with “<0.05. […]” for “<0.05.”
# [11] = 25 mnoles, air pouch exudates (FIG. 6)
# [12] = compound 25 nmoles plus TNFα 10 ng, 4 h post-injection
# [13] = injected alone, 4 h post-injection, TNFα 10 ng or compound 25 nmoles
# Chain of LXA4 receptor (P25090 whole entry): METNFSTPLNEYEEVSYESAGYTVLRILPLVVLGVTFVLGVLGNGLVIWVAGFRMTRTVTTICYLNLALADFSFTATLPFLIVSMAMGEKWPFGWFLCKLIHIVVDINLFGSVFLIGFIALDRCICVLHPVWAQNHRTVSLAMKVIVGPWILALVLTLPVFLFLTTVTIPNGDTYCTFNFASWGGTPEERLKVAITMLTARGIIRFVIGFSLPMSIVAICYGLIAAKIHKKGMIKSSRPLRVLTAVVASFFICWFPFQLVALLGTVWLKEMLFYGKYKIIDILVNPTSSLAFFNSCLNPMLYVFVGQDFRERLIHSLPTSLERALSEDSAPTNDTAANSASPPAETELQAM
compound,measurement,setting,value
"CCCCC[C@H](O)/C=C/C=C\C=C\C=C\[C@@H](O)[C@@H](O)CCCC(=O)O (relative stereo) [LXA4, 5S, 6R, 15S-trihydroxy-7,9,13-trans-11-cis-eicosatetraenoic acid, reference compound]",inhibition of TNFα-stimulated superoxide anion generation,[1],34.3±2.3%
same,inhibition of FMLP-stimulated O2- production,[2],neither LXA4 nor its analogs inhibit
same,inhibition of PMA-stimulated O2- production,"[2]; PMA 100 nM, n=3",neither LXA4 nor its analogs inhibit
same,inhibition of IL-1β release,[3]; TNFα 10 ng/ml,comparable
same,effect on TNFα-induced IL-1β release,"[3]; LXA4 100 nM, TNFα 10 ng/ml, 20 h (FIG. 2A)",specifically inhibited
"CCCCCC(C)(O)/C=C/C=C\C=C\C=C\[C@@H](O)[C@@H](O)CCCC(=O)OC (stereo partly drawn) [15 R/S-methyl-LXA4, 15R/S-methyl-LXA4-methyl ester]",potency relative to native LXA4 as inhibitor of TNFα-stimulated superoxide generation,[1],approximately three times more potent
same,inhibition of TNFα-stimulated superoxide anion generation,[1],81.3±14.1%
same,inhibition of TNFα-induced IL-1β release,"[3]; 10 nM compound, TNFα 10 ng/ml (FIG. 2B)",clear statistically significant inhibition
same,time within which inhibition of IL-1β release was evident,"[3]; 10 nM compound, more prominent after 24 h",≤ 6 h
same,inhibition of IL-1β release,[3]; TNFα 10 ng/ml,approximately 60%
same,inhibition of TNFα-stimulated MIP-2 release,[4]; [11],48%
same,"MIP-2 release, compound alone in the air pouch",[4]; without TNFα,did not stimulate
same,inhibition of TNFα-stimulated IL-1β release,[5]; [11],30%
same,"IL-1β release, compound alone in the air pouch",[5]; without TNFα,did not stimulate
same,appearance of IL-4 within the exudates,[6],stimulated the appearance of IL-4
same,time at which inhibition of leukocyte recruitment was evident,[7]; 25 nmoles,1 h
same,inhibition of TNFα-stimulated recruitment of leukocytes to the air pouch,"[7]; 25 nmoles into pouch, murine TNFα 10 ng/ml (FIG. 5)",62%
same,leukocyte infiltration at 8 h,"[7]; 8 h, 25 nmoles (FIG. 5, insert)",remained significantly reduced
same,reduction in leukocyte infiltration,"[7]; between 2 h and 4 h, 25 nmoles",more than 60%
same,Number of leukocytes present in the pouch: Eosinophils/Basophils,[7]; [12],0.13 ± 0.01 x 10^6
same,Number of leukocytes present in the pouch: Monocytes/Macrophages,[7]; [12],0.10 ± 0.01 x 10^6
same,Number of leukocytes present in the pouch: Neutrophils,[7]; [12],0.98 ± 0.10 x 10^6
same,Percent inhibition of TNFα-induced infiltration: Eosinophils/Basophils,[7]; [12],(56.0%)
same,Percent inhibition of TNFα-induced infiltration: Monocytes/Macrophages,[7]; [12],(50%)
same,Percent inhibition of TNFα-induced infiltration: Neutrophils,[7]; [12],(59.1%)
same,Number of leukocytes present in the pouch: Eosinophils/Basophils,[7]; [13],0.03 ± 0.01 x 10^6
same,Number of leukocytes present in the pouch: Monocytes/Macrophages,[7]; [13],0.14 ± 0.01 x 10^6
same,Number of leukocytes present in the pouch: Neutrophils,[7]; [13],0.25 ± 0.01 x 10^6
same,leukocyte infiltration after injection of the analog alone,[7]; without TNFα,did not cause a significant leukocyte infiltration
same,"mononuclear cell influx, compound alone","[7]; without TNFα, 4 h",small but statistically significant increase
same,decrease of IL-1β messenger RNA levels compared to TNFα alone,[8],approximately 60%
same,inhibition of IL-1β release,"[9]; 100 nM compound, TNFα 10 ng/ml, 12 h (FIG. 4)",about 50%
same,IL-1β appearance when added together with anti-LXA4-R antibodies in the presence of TNFα,"[9]; 100 nM compound, antibodies ~50 μg/ml",did not further inhibit IL-1β appearance
same,"stimulation of IL-1β appearance within supernatants, agent alone",[9]; without TNFα,neither anti-LXA4-R antibodies nor 15 R/S-LXA4 alone stimulated significant amounts of IL-1β
"COC(=O)CCCC(O)C(O)C=CC=CC=CC=CC(O)COc1ccccc1 (stereo not drawn) [16-phenoxy-LXA4, 16 phenoxy-lipoxin A4 methyl ester]",potency relative to native LXA4 as inhibitor of TNFα-stimulated superoxide generation,[1],approximately three times more potent
same,inhibition of TNFα-stimulated superoxide anion generation,[1],93.7±3.2%
same,inhibition of IL-1β release,[3]; TNFα 10 ng/ml,approximately 40%
"GM-CSF: human recombinant GM-CSF, agonist of IL-1β release",approximate EC50 for increase in IL-1β levels in supernatants,[10]; agonist GM-CSF,~10 U/ml
TNFα [reference compound],approximate EC50 for increase in IL-1β levels in supernatants,[10]; agonist TNFα,~10 ng/mL
same,time to maximal detectable amounts of MIP-2,[4]; TNFα-injected pouches,≤ 90 min
same,time to maximal detectable amounts of IL-1β,[5]; TNFα-injected pouches,≤ 90 min
same,Number of leukocytes present in the pouch: Eosinophils/Basophils,[7]; [13],0.30 ± 0.01 x 10^6
same,Number of leukocytes present in the pouch: Monocytes/Macrophages,[7]; [13],0.20 ± 0.01 x 10^6
same,Number of leukocytes present in the pouch: Neutrophils,[7]; [13],2.40 ± 0.10 x 10^6
same,time of maximal accumulation of leukocytes in the air pouch,[7]; murine TNFα 10 ng/ml,4 h
